Reference: patent US11312724B2 (ASCENTAGE PHARMA (SUZHOU) CO., LTD., priority 2021, dated 2022)

What was measured:
MIA PaCa-2 cell = experiment: Cell proliferation assay (Celltiter-Glo), MIA PaCa-2; format: cell-based; details: Homo sapiens, MIA PaCa-2, 72 h, 3 days
Protocol: (§1) Cell Proliferation Assay:
(§2) NCI-H358 cell and MIA PaCa-2 cell was cultured in RPMI-1640 supplemented with 10% FBS in humidified incubator at 37° C., 5% CO2. To asses the effect of Compounds of the Disclosure on cell proliferation, exponentially growing cells (5000 cells/well) were plated onto 96-well plates. After cell seeding, a representative Compounds of the Disclosure were added to the cell media (in concentrations ranging from 0 to 10 μM, 3/dilution series). After 3 days, 30 μL Celltiter-Glo reagent was added, and the luminescent signal was determined according to supplier's instruction. The dose response curves and IC50 values were generated using Prism.

NCI-H358 cell = experiment: Cell proliferation assay (Celltiter-Glo), NCI-H358; format: cell-based; details: Homo sapiens, NCI-H358, 72 h, 3 days
Protocol: as §1, §2

[1] = Mouse PK studies, single i.v. and p.o. dose; format: in vivo, CD1 mice; details: male, CD1, mouse, plasma; for half-life: terminal half-life

| IC50 (MIA PaCa-2 cell) [nM] | IC50 (NCI-H358 cell) [nM] | Compound | further results |
| --- | --- | --- | --- |
| 5800 | 10400 | C=C(COC)C(=O)N1CCN(c2nc(OC[C@@H]3CCCN3C)nc3c2CCC2(CCc4ccccc42)C3)C[C@@H]1CC#N (stereo partly drawn) [Cpd. No. 42, 2-((2S)-1-(2-(methoxymethyl)acryloyl)-4-(2′-(((S)-1-methylpyrrolidin-2-yl)methoxy)-2,3,5′,8′-tetrahydro-6′H-spiro[indene-1,7′-quinazolin]-4′-yl)piperazin-2-yl)acetonitrile] |  |
| 130 | 120 | CN1CCC[C@H]1COc1nc2c(c(N3CCN(C(=O)/C=C/CF)[C@@H](CC#N)C3)n1)CCC1(CCc3ccccc31)C2 (stereo partly drawn) [Cpd. No. 43, 2-((2S)-1-((E)-4-fluorobut-2-enoyl)-4-(2′-(((S)-1-methylpyrrolidin-2-yl)methoxy)-2,3,5′,8′-tetrahydro-6′H-spiro[indene-1,7′-quinazolin]-4′-yl)piperazin-2-yl)acetonitrile] |  |
| 1.5 | 4.6 | C=CC(=O)N1CCN(c2nc(OCC34CCCN3CCC4)nc3c2CC[C@@]2(CCc4c(Cl)cccc42)C3)C[C@@H]1CC#N [Cpd. No. 44, 2-((S)-1-acryloyl-4-((R)-4-chloro-2′-((tetrahydro-1H-pyrrolizin-7a(5H)-yl)methoxy)-2,3,5′,8′-tetrahydro-6′H-spiro[indene-1,7′-quinazolin]-4′-yl)piperazin-2-yl)acetonitrile] |  |
| 2.8 | 7.6 | C=C(F)C(=O)N1CCN(c2nc(OCC34CCCN3CCC4)nc3c2CC[C@@]2(CCc4c(Cl)cccc42)C3)C[C@@H]1CC#N [Cpd. No. 45, 2-((S)-4-((R)-4-chloro-2′-((tetrahydro-1H-pyrrolizin-7a(5H)-yl)methoxy)-2,3,5′,8′-tetrahydro-6′H-spiro[indene-1,7′-quinazolin]-4′-yl)-1-(2-fluoroacryloyl)piperazin-2-yl)acetonitrile] |  |
| 15 | 25 | C=CC(=O)N1CCN(c2nc(OCC3CCC4(CC4)N3C)nc3c2CC[C@@]2(CCc4c(Cl)cccc42)C3)C[C@@H]1CC#N (stereo partly drawn) [Cpd. No. 46, 2-((2S)-1-acryloyl-4-((1R)-4-chloro-2′-((4-methyl-4-azaspiro[2.4]heptan-5-yl)methoxy)-2,3,5′,8′-tetrahydro-6′H-spiro[indene-1,7′-quinazolin]-4′-yl)piperazin-2-yl)acetonitrile] |  |
| 60 | 61 | C=C(F)C(=O)N1CCN(c2nc(OCC34CCCN3CCC4)nc3c2CCC2(CCc4c(C(F)F)cccc42)C3)C[C@@H]1CC#N (stereo partly drawn) [Cpd. No. 49, 2-((2S)-4-(4-(difluoromethyl)-2′-((tetrahydro-1H-pyrrolizin-7a(5H)-yl)methoxy)-2,3,5′,8′-tetrahydro-6′H-spiro[indene-1,7′-quinazolin]-4′-yl)-1-(2-fluoroacryloyl)piperazin-2-yl)acetonitrile] |  |
| 2.9 | 1.2 | C=C(F)C(=O)N1CCN(c2nc(OC[C@@]34CCCN3C[C@H](F)C4)nc3c2CC[C@@]2(CCc4c(Cl)cccc42)C3)C[C@@H]1CC#N [Cpd. No. 50, 2-((S)-4-((R)-4-chloro-2′-(((2R,7aS)-2-fluorotetrahydro-1H-pyrrolizin-7a(5H)-yl)methoxy)-2,3,5′,8′-tetrahydro-6′H-spiro[indene-1,7′-quinazolin]-4′-yl)-1-(2-fluoroacryloyl)piperazin-2-yl)acetonitrile] |  |
| 110 | 52 | C=C(F)C(=O)N1CCN(c2nc(OCC34CCCN3CC(F)(F)C4)nc3c2CC[C@@]2(CCc4c(Cl)cccc42)C3)C[C@@H]1CC#N (stereo partly drawn) [Cpd. No. 51, 2-((2S)-4-((1R)-4-chloro-2′-((2,2-difluorotetrahydro-1H-pyrrolizin-7a(5H)-yl)methoxy)-2,3,5′,8′-tetrahydro-6′H-spiro[indene-1,7′-quinazolin]-4′-yl)-1-(2-fluoroacryloyl)piperazin-2-yl)acetonitrile] |  |
| 340 | 260 | C=C(F)C(=O)N1CCN(c2nc(OCC3CCC4CCCN43)nc3c2CC[C@@]2(CCc4c(Cl)cccc42)C3)C[C@@H]1CC#N (stereo partly drawn) [Cpd. No. 52, 2-((2S)-4-((1R)-4-chloro-2′-((hexahydro-1H-pyrrolizin-3-yl)methoxy)-2,3,5′,8′-tetrahydro-6′H-spiro[indene-1,7′-quinazolin]-4′-yl)-1-(2-fluoroacryloyl)piperazin-2-yl)acetonitrile] |  |
| 1.1 | 2.5 | C=CC(=O)N1CCN(c2nc(OC[C@@H]3CCCN3C)nc3c2CC[C@@]2(CCc4c(Cl)cccc42)C3)C[C@@H]1CC#N [Cpd. No. 53, 2-((S)-1-acryloyl-4-((R)-4-chloro-2′-(((S)-1-methylpyrrolidin-2-yl)methoxy)-2,3,5′,8′-tetrahydro-6′H-spiro[indene-1,7′-quinazolin]-4′-yl)piperazin-2-yl)acetonitrile] | AUC(0-inf) ([1]; 2 mg/kg, IV 2 mpk): 1200 ng·h/mL; AUC(0-t) ([1]; 2 mg/kg, IV 2 mpk): 1200 ng·h/mL; MRT inf ([1]; 2 mg/kg, IV 2 mpk): 0.824 h; half-life ([1]; 2 mg/kg, IV 2 mpk): 1.45 h; Vd ([1]; 2 mg/kg, IV 2 mpk, read-out: Vss): 1.37 L/kg; AUC(0-inf) ([1]; 10 mg/kg, PO 10 mpk): 2900 ng·h/mL; AUC(0-t) ([1]; 10 mg/kg, PO 10 mpk): 2650 ng·h/mL; Cmax ([1]; 10 mg/kg, PO 10 mpk): 856 ng/mL; MRT inf ([1]; 10 mg/kg, PO 10 mpk): 3.26 h; half-life ([1]; 10 mg/kg, PO 10 mpk): 2.39 h; bioavailability ([1]; 10 mg/kg, PO 10 mpk vs IV 2 mpk): 48.2% |
| 16 | 28 | C=C(F)C(=O)N1CCN(c2nc(OC[C@@H]3CCCN3C)nc3c2CC[C@@]2(CCc4c(Cl)cccc42)C3)C[C@@H]1CC#N [Cpd. No. 54, 2-((S)-4-((R)-4-chloro-2′-(((S)-1-methylpyrrolidin-2-yl)methoxy)-2,3,5′,8′-tetrahydro-6′H-spiro[indene-1,7′-quinazolin]-4′-yl)-1-(2-fluoroacryloyl)piperazin-2-yl)acetonitrile] |  |
| 1.8 | 2.2 | C=CC(=O)N1CCN(c2nc(OC[C@@H]3CCCN3C)nc3c2CCC2(COCc4c(F)cccc42)C3)C[C@@H]1CC#N (some centres unmarked) [compound 26] |  |
